Experimental data from patent US20110105509A1 (Wyeth, LLC, priority 2009, published 2011).

biological target: T1, CRTH2 (Homo sapiens, UniProt Q9Y5Y4); assay: FRET based competitive immunoassay (cAMP) in CRTH2 expressing CHO cells; type: cell-based; details: CRTH2 expressing CHO cells incubated with forskolin and PGD2; Eu3+ cryptate-labeled anti-cAMP and d2-labeled cAMP
T1 construct: expressed in transfected cells; host or cells: CHO cells
T1 sequence (Q9Y5Y4 1-395): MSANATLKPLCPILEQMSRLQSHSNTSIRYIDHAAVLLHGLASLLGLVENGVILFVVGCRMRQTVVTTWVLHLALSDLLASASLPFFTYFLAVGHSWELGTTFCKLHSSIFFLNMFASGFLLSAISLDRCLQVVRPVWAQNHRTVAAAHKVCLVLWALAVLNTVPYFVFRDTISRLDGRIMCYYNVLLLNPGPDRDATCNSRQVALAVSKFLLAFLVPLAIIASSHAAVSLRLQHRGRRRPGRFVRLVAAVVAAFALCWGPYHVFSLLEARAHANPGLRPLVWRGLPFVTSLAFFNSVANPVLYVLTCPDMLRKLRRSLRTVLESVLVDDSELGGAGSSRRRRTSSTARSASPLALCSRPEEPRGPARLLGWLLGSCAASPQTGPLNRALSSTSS
Description: FRET Assay: To evaluate potency compounds were tested in a FRET based competitive immunoassay in which CRTH2 expressing CHO cells were incubated in the presence of forskolin and PGD2 along with Eu3+ cryptate-labeled anti-cAMP and d2-labeled cAMP.

Row | IC50 [nM] | SMILES
1 | > 2000 | COc1ccc2c(c1)c(-c1ccc(=O)n(CC(F)(F)F)c1)c(C)n2CC(=O)O [Example 298, 2-(5-methoxy-2-methyl-3-(6-oxo-1-(2,2,2-trifluoroethyl)-1,6-dihydropyridin-3-yl)-1H-indol-1-yl)acetic acid]
2 | > 2000 | Cc1c(-c2ccc(=O)n(Cc3cccc(F)c3F)c2)c2cc(F)ccc2n1CC(=O)N1CCCC1 [Example 299, 1-(2,3-difluorobenzyl)-5-(5-fluoro-2-methyl-1-(2-oxo-2-(pyrrolidin-1-yl)-ethyl)-1H-indol-3-yl)pyridin-2(1H)-one]
3 | > 2000 | Cc1c(-c2ccc(=O)n(Cc3cccc(F)c3F)c2)c2cc(F)ccc2n1CC(=O)N(C)C [Example 300, 2-(3-(1-(2,3-difluorobenzyl)-6-oxo-1,6-dihydropyridin-3-yl)-5-fluoro-2-methyl-1H-indol-1-yl)-N,N-dimethylacetamide]
4 | > 2000 | Cc1c(-c2ccc(=O)n(Cc3cccc(F)c3F)c2)c2cc(F)ccc2n1CC(N)=O [Example 301, 2-(3-(1-(2,3-difluorobenzyl)-6-oxo-1,6-dihydropyridin-3-yl)-5-fluoro-2-methyl-1H-indol-1-yl)acetamide]
5 | 159 | Cc1c(-c2ccc(=O)n(Cc3cccc(F)c3F)c2)c2cc(F)ccc2n1CC(=O)NS(C)(=O)=O [Example 302, 2-(3-(1-(2,3-Difluorobenzyl)-6-oxo-1,6-dihydropyridin-3-yl)-5-fluoro-2-methyl-1H-indol-1-yl)-N-(methylsulfonyl)acetamide]
6 | > 2000 | Cc1c(-c2ccc(=O)n(Cc3cccc(F)c3F)c2)c2cc(F)ccc2n1CCC(=O)O [Example 303, 3-(3-(1-(2,3-difluorobenzyl)-6-oxo-1,6-dihydropyridin-3-yl)-5-fluoro-2-methyl-1H-indol-1-yl)propanoic acid]
7 | 1180 | Cc1ccc2c(c1)c(-c1ccc(=O)n(CC(F)(F)F)c1)c(C)n2CC(=O)O [Example 304, 2-(2,5-dimethyl-3-(6-oxo-1-(2,2,2-trifluoroethyl)-1,6-dihydropyridin-3-yl)-1H-indol-1-yl)acetic acid]
8 | > 2000 | Cc1c(-c2ccc(=O)n(Cc3cccc(F)c3F)c2)c2cc(F)ccc2n1CCO [Example 305, 1-(2,3-difluorobenzyl)-5-(5-fluoro-1-(2-hydroxyethyl)-2-methyl-1H-indol-3-yl)-pyridin-2(1H)-one]
9 | > 2000 | Cc1c(-c2ccc(=O)n(Cc3cccc(F)c3F)c2)c2cc(F)ccc2n1[C@@H](C)C(=O)O [Example 306a, (S)-2-(3-(1-(2,3-difluorobenzyl)-6-oxo-1,6-dihydropyridin-3-yl)-5-fluoro-2-methyl-1H-indol-1-yl)propanoic acid]
10 | > 2000 | Cc1c(-c2ccc(=O)n(Cc3cccc(F)c3F)c2)c2cc(F)ccc2n1[C@H](C)C(=O)O [Example 306b, (R)-2-(3-(1-(2,3-difluorobenzyl)-6-oxo-1,6-dihydropyridin-3-yl)-5-fluoro-2-methyl-1H-indol-1-yl)propanoic acid]
11 | 28 | Cc1c(-c2ccc(=O)n(CCC(F)(F)F)c2)c2cc(F)ccc2n1CC(=O)O [Example 307, 2-(5-fluoro-2-methyl-3-(6-oxo-1-(3,3,3-trifluoropropyl)-1,6-dihydropyridin-3-yl)-1H-indol-1-yl)acetic acid]
12 | 35 | Cc1c(-c2ccc(=O)n(Cc3ccncc3)c2)c2cc(F)ccc2n1CC(=O)O [Example 308, 2-(5-fluoro-2-methyl-3-(6-oxo-1-(pyridin-4-ylmethyl)-1,6-dihydropyridin-3-yl)-1H-indol-1-yl)acetic acid]
13 | 105 | Cc1c(-c2ccc(=O)n(Cc3ccccn3)c2)c2cc(F)ccc2n1CC(=O)O [Example 309, 2-(5-fluoro-2-methyl-3-(6-oxo-1-(pyridin-2-ylmethyl)-1,6-dihydropyridin-3-yl)-1H-indol-1-yl)acetic acid]
14 | > 1000 | Cc1c(-c2ccc(=O)n(Cc3cccc(F)c3F)c2)c2cc(F)ccc2n1CC#N [Example 310, 2-(3-(1-(2,3-difluorobenzyl)-6-oxo-1,6-dihydropyridin-3-yl)-5-fluoro-2-methyl-1H-indol-1-yl)acetonitrile]
15 | > 1000 | Cc1c(-c2ccc(=O)n(Cc3cccc(F)c3F)c2)c2cc(F)ccc2n1Cc1nn[nH]n1 [Example 311, 5-(1-((2H-tetrazol-5-yl)methyl)-5-fluoro-2-methyl-1H-indol-3-yl)-1-(2,3-difluoro-benzyl)pyridin-2(1H)-one]
16 | > 1000 | Cc1c(-c2ccc(=O)n(Cc3ccccc3)c2)c2cc(F)ccc2n1CC(=O)NS(=O)(=O)c1ccccc1 [Example 312, 2-(3-(1-benzyl-6-oxo-1,6-dihydropyridin-3-yl)-5-fluoro-2-methyl-1H-indol-1-yl)-N-(phenylsulfonyl)acetamide]

Row | IC50 [nM] | SMILES
17 | 32 | Cc1c(-c2ccc(=O)n(Cc3ccccc3)c2)c2cc(F)ccc2n1CC(=O)NS(C)(=O)=O [Example 313, 2-(3-(1-Benzyl-6-oxo-1,6-dihydropyridin-3-yl)-5-fluoro-2-methyl-1H-indol-1-yl)-N-(methyl-sulfonyl)acetamide]
18 | > 1000 | Cc1ccccc1S(=O)(=O)NC(=O)Cn1c(C)c(-c2ccc(=O)n(Cc3ccccc3)c2)c2cc(F)ccc21 [Example 314, 2-(3-(1-Benzyl-6-oxo-1,6-dihydropyridin-3-yl)-5-fluoro-2-methyl-1H-indol-1-yl)-N-(o-tolyl-sulfonyl)acetamide]
19 | 32 | Cc1c(-c2ccc(=O)n(Cc3cccnc3)c2)c2cc(F)ccc2n1CC(=O)O [Example 315, 2-(5-fluoro-2-methyl-3-(6-oxo-1-(pyridin-3-ylmethyl)-1,6-dihydropyridin-3-yl)-1H-indol-1-yl)acetic acid]
20 | 39 | Cc1c(-c2ccc(=O)n(CCC(C(F)(F)F)C(F)(F)F)c2)c2cc(F)ccc2n1CC(=O)O [Example 316, 2-(5-fluoro-2-methyl-3-(6-oxo-1-(4,4,4-trifluoro-3-(trifluoromethyl)butyl)-1,6-dihydropyridin-3-yl)-1H-indol-1-yl)acetic acid]
21 | > 1000 | Cc1c(-c2ccc(=O)n(CCCC(F)(F)F)c2)c2cc(F)ccc2n1CC(=O)NS(=O)(=O)C1CC1 [Example 317, N-(cyclopropylsulfonyl)-2-(5-fluoro-2-methyl-3-(6-oxo-1-(4,4,4-trifluorobutyl)-1,6-dihydropyridin-3-yl)-1H-indol-1-yl)acetamide]
22 | > 1000 | Cc1c(-c2ccc(=O)n(CCCC(F)(F)F)c2)c2cc(F)ccc2n1CC(=O)NS(C)(=O)=O [Example 318, 2-(5-fluoro-2-methyl-3-(6-oxo-1-(4,4,4-trifluorobutyl)-1,6-dihydropyridin-3-yl)-1H-indol-1-yl)-N-(methylsulfonyl)acetamide]
23 | > 1000 | Cc1c(-c2ccc(=O)n(Cc3ccccc3)c2)c2cc(F)ccc2n1CC(=O)NS(=O)(=O)C1CC1 [Example 319, 2-(3-(1-Benzyl-6-oxo-1,6-dihydropyridin-3-yl)-5-fluoro-2-methyl-1H-indol-1-yl)-N-(cyclo-propyl-sulfonyl)acetamide]
24 | > 1000 | Cc1c(Cc2ccc(=O)n(Cc3ccc(F)cc3F)n2)c2cc(F)ccc2n1CC(=O)NS(C)(=O)=O [Example 320, 2-(3-((1-(2,4-difluorobenzyl)-6-oxo-1,6-dihydropyridazin-3-yl)methyl)-5-fluoro-2-methyl-1H-indol-1-yl)-N-(methylsulfonyl)acetamide]
25 | > 1000 | Cc1c(Cc2ccc(=O)n(Cc3ccc(F)c(F)c3)c2)c2cc(F)ccc2n1CC(=O)NS(C)(=O)=O [Example 321, 2-(3-((1-(3,4-difluorobenzyl)-6-oxo-1,6-dihydropyridin-3-yl)methyl)-5-fluoro-2-methyl-1H-indol-1-yl)-N-(methylsulfonyl)acetamide]
26 | > 1000 | Cc1c(-c2nn(CCOc3ccccc3)c(=O)c3ccccc23)c2cc(Cl)ccc2n1CC(=O)NS(C)(=O)=O [Example 322, 2-(5-Chloro-2-methyl-3-(4-oxo-3-(2-phenoxyethyl)-3,4-dihydrophthalazin-1-yl)-1H-indol-1-yl)-N-(methylsulfonyl)acetamide]
27 | 518 | Cc1c(-c2cn(Cc3ccccc3)c(=O)c3ccccc23)c2cc(F)ccc2n1CC(=O)NS(C)(=O)=O [Example 323, 2-(3-(2-benzyl-1-oxo-1,2-dihydroisoquinolin-4-yl)-5-fluoro-2-methyl-1H-indol-1-yl)-N-(methylsulfonyl)acetamide]
28 | 6 | Cc1c(-c2ccc(=O)n(Cc3ccccc3)n2)c2cc(F)ccc2n1CC(=O)O [Example 324, 2-(3-(1-benzyl-6-oxo-1,6-dihydropyridazin-3-yl)-5-fluoro-2-methyl-1H-indol-1-yl)-acetic acid]
29 | 61 | Cc1c(-c2nn(C(C)C)c(=O)c3ccccc23)c2ccccc2n1CC(=O)O [Example 326, [3-(3-isopropyl-4-oxo-3,4-dihydrophthalazin-1-yl)-2-methyl-1H-indol-1-yl]acetic acid]
30 | 13 | Cc1c(-c2nn(CC(C)C)c(=O)c3ccccc23)c2cc(F)ccc2n1CC(=O)O [Example 327, {5-fluoro-2-methyl-3-[3-(2-methylpropyl)-4-oxo-3,4-dihydrophthalazin-1-yl]-1H-indol-1-yl}acetic acid]
31 | 12 | Cc1c(-c2nn(Cc3ccccc3)c(=O)c3ccccc23)c2cc(F)ccc2n1CC(=O)O [Example 328, [3-(3-benzyl-4-oxo-3,4-dihydrophthalazin-1-yl)-5-fluoro-2-methyl-1H-indol-1-yl]-acetic acid]
